B1: recombinant bovine growth hormone: recombinant bovine growth hormone injected in sheep (cited Ph.D. thesis) (protein, UniProt P01246 27-217, looked up)
Somatotropin: AFPAMSLSGLFANAVLRAQHLHQLAADTFKEFERTYIPEGQRYSIQNTQVAFCFSETIPAPTGKNEAQQKSDLELLRISLLLIQSWLGPLQFLSRVFTNSLVFGTSDRVYEKLKDLEEGILALMRELEDGTPRAGQILKQTYDKFDTNMRSDDALLKNYGLLSCFRKDLHKTETYLRVMKCRRFGEASCAF

Columns and labels:
[1] = test system: jejunal oxygen consumption; experiment: Jejunal oxygen consumption of treated mice, with and without ouabain; type: in vivo, swiss-webster mice; conditions: jejunum of treated mice, 37° C.; for Oxygen Consumption, With Ouabain, Dry / Oxygen Consumption, Without Ouabain, Dry: dry tissue; for Oxygen Consumption, With Ouabain, Wet / Oxygen Consumption, Without Ouabain, Wet: wet tissue
Experimental: (§1) Two month old male swiss-webster mice obtained from Charles River Laboratory were subcutaneously injected in the post-scapula region once a day for three days with one of the following treatments: (1) Saline treatment: 0.25 ml of sterile physiological saline (0.9% saline) (n=9 mice); (2) Peptide YY (PYY) treatment: 300 μg per kilogram body weight of Peptide YY in 0.25 ml sterile physiological saline solution (n=6 mice); (c) Somatostatin treatment: 120 μg per kilogram body weight of somatostatin in 0.25 ml sterile physiological saline solution (n=6 mice); or (4) Transforming Growth Factor alpha (TGFα) treatment: 300 μg per kilogram body weight of TGFα in 0.25 ml sterile physiological saline solution (n=6 mice).
Measurement of oxygen consumption rate was determined as described by McBride and Milligan, Br. J. Nutr., 53:605 (1985) for ovine duodenal mucosa, and as described by Bird et al., J. Nutr. 124:231 (1994) for mice jejunum, using an oxygen monitor and an incubation bath fitted with an O2 electrode (Yellow Springs Instruments, Yellow Springs, Ohio, USA). Adjacent jejunal ring samples (two from each mouse jejunum) were prepared by rinsing in ice-cold HEPES transport buffer to remove digesta residues. The rate of O2 uptake of the duplicate jejunal samples, constantly stirred in 4 ml of media at 37° C., was electronically recorded. After 3 minutes, 100 uL of 12.6 mmol/L ouabain (Sigma Chemical), a specific inhibitor of Na+, K+-ATPase, was added to the chamber and oxygen consumption was plotted for 3 minutes. Dry matter content of the tissue pieces was then measured by drying the jejunal samples at 80° C. in a forced draught oven for 48 hours.

[2] = Visceral organ weight of treated mice; type: in vivo, swiss-webster mice
Experimental: as §1
After the treated mice were sacrificed by cervical dislocation as described in Example 2, the visceral organs were dissected out and the liver, stomach, kidneys, colon and caecum of each mouse was weighed. The kidneys of the PYY treatment group were heavier than those of other treatment groups for unknown reasons.

[3] = test system: jejunal glucose transport (S-GLT1 transporter); experiment: Jejunal glucose transport ([3H]3-O-methyl-D-glucose uptake by jejunal rings of treated mice, with and without phlorizin); type: in vivo, swiss-webster mice; conditions: for Glucose Transport, Total / Glucose Transport, Active / Glucose Transport, Passive: mid-jejunal rings of treated mice; for Glucose Transport, Total: 37° C. without phlorizin minus 4° C. with phlorizin; for Glucose Transport, Active: difference of 3OMG accumulation with and without phlorizin, 37° C.; for Glucose Transport, Passive: with phlorizin, 37° C. minus 4° C.
Experimental: as §1
A sample of mid-jejunal tissue was dissected out of each of the small intestines removed in Example 2. As described below, each glucose transport assay was replicated three times per mouse, and an assay to measure non-specific binding was replicated twice per mouse. Thus each mid-jejunal sample (one from each mouse) was cut into eight one millimeter rings.
The assay for glucose transport was a modification of the assay validated by Black, Comp. Biochem Physiol. 90A:379 (1988) to measure glucose transport in embryonic chick duodenum. Additional details of the present method as modified for mouse intestine are discussed in Bird et al., J. Nutr. 124:231 (1994), and the method is validated for mice in Bird et al., Nutr. Research, 14:411 […]. The transport buffer utilized for jejunal samples was similar to that described by Black (1988) but also contained 0.5 mmol/L 3-O-methyl-D-glucose (3 OMG), 0.5 mmol/L B-hydroxybutyrate, and 2.5 mmol/L glutamine. The assay was started by transferring intestinal rings preincubated at 37° C. for 5 minutes in transport buffer to beakers containing 28 MBq/L of [^3 H]3 OMG in 2 ml of buffer. To differentiate active from passive transport, phlorizin (phloretin-2'-β-D-glucoside; Sigma Chemicals, St. Louis, Mo.) was utilized. Phlorizin is a specific inhibitor of the S-GLT1 transporter (a sodium dependent active transporter) located on the luminal surface of absorptive epithelium (see Brot-Laroche and Alvarado, Mechanisms of sugar transport across the intestinal brush border membrane, IN: Intestinal Transport: Fundamental and Comparative Aspects, Gilles-Baillin and Gilles (Eds.), Springer-Verlag, Berlin (1983)). The S-GLT1 transporter is one of a family of transporter proteins, and actively transports glucose.
Uptake of [^3 H]3 OMG was stopped after 5 minutes by rinsing samples in 3 ml of ice-cold mannitol (300 mmol/L). Labelled substrate was extracted from the tissue into 2 mL of trichloroacetic acid (25 g/L) at 37° C. for 60 minutes in a shaking water bath. Samples were removed, blotted and weighed. The extract was centrifuged at 2000×g for 15 minutes at 4° C., and then 1 ml of the decanted supernatant was dispersed in 5 ml of Ecolite (+) scintillation cocktail (ICN Biomedicals, Cleveland, Ohio) and counted for 10 minutes in a scintillation counter. Duplicate aliquots (100 uL) of incubation media containing approximately 2.8 kBq [^3 H]3 OMG (both with and without phlorizin) and a blank were counted with each set of samples.
Active glucose transport was calculated as the difference between 3 OMG accumulation in media with and without phlorizin. Passive transport was calculated as the difference between 3 OMG accumulation in the presence of phlorizin at 37° C. and 4° C. Total transport is the difference between 3 OMG accumulation at 37° C., in the absence of phlorizin, and accumulation at 4° C. in the presence of phlorizin. Transport data are presented as pmol glucose/(min-mg wet tissue). Fasting body weight of the mice was used to express data on a body weight basis.

[4] = test system: water and electrolyte absorption from the small intestine; conditions: unfed dogs, peripheral infusion; cited from earlier work
[5] = test system: Na-dependent active glucose uptake; experiment: Energetic efficiency of Na-dependent active glucose uptake; type: in vivo, swiss-webster mice; conditions: compared with saline control; 1 nmol O2 assumed = 5 nmol ATP; FIG. 1
Experimental: The energetic efficiency of Na-dependent active glucose uptake in the PYY treated mice and the saline control treated mice was calculated, assuming that consumption of 1 nmol of O2 (as measured in Example 5, above) indicated expenditure of 5 nmol of ATP (Gill et al., J. Nutr. 119:1287-1299 (1989).

[6] = test system: sodium-dependent duodenal active transport; conditions: sheep injected with recombinant bovine growth hormone; cited from earlier work
[7] = mice, s.c. once a day for three days

Molecule	Oxygen Consumption, With Ouabain, Dry [1]	Oxygen Consumption, Without Ouabain, Dry [1]	Oxygen Consumption, With Ouabain, Wet [1]	Oxygen Consumption, Without Ouabain, Wet [1]	Glucose Transport, Total [3]	Glucose Transport, Active [3]	Glucose Transport, Passive [3]	Organ Weight, Caecum ([2]; mouse, in vivo, sc)	Organ Weight, Colon ([2]; mouse, in vivo, sc)	Organ Weight, Kidneys ([2]; mouse, in vivo, sc)	Organ Weight, Liver ([2]; mouse, in vivo, sc)	Organ Weight, Stomach ([2]; mouse, in vivo, sc)	further results
C[C@H](N)C(=O)NCC(=O)N[C@H]1CSSC[C@@H](C(=O)O)NC(=O)[C@H](CO)NC(=O)[C@H]([C@@H](C)O)NC(=O)[C@H](Cc2ccccc2)NC(=O)[C@H]([C@@H](C)O)NC(=O)[C@H](CCCCN)NC(=O)[C@H](Cc2c[nH]c3ccccc23)NC(=O)[C@H](Cc2ccccc2)NC(=O)[C@H](Cc2ccccc2)NC(=O)[C@H](CC(N)=O)NC(=O)[C@H](CCCCN)NC1=O [Somatostatin, somatostatin]	181.29 µL/min/g	224.77 µL/min/g	35.13 µL/min/g	43.62 µL/min/g	371 pmol/min/mg tissue	303 pmol/min/mg tissue	67 pmol/min/mg tissue	–	–	–	–	–	Organ Weight, Caecum [2, 7]: 156 mg; Organ Weight, Colon [2, 7]: 316 mg; Organ Weight, Kidneys [2, 7]: 534 mg; Organ Weight, Liver [2, 7]: 1441 mg; Organ Weight, Stomach [2, 7]: 232 mg
PYY: 36 amino acid hormonal peptide, produced by "L type" endocrine cells; member of the pancreatic polypeptide family [Peptide YY]	194.22 µL/min/g	253.93 µL/min/g	36.54 µL/min/g	47.71 µL/min/g	431 pmol/min/mg tissue	369 pmol/min/mg tissue	63 pmol/min/mg tissue	134 mg	315 mg	468 mg	1274 mg	230 mg	water and electrolyte absorption from the small intestine [4]: dose-dependent increase; increase in active glucose transport expressed per unit of body weight (Table 2 footnote) ([3]; compared to saline control): 46; increase in active glucose transport expressed per unit of fasting body weight ([3]; compared to the saline control group): 46%; active glucose transport, comparison with saline control group ([3]; per milligram of intestinal tissue): statistically significant increase; metabolic cost of total glucose uptake (total nmol ATP expended per nmol of 3OMG uptake) [5]: less
Transforming Growth Factor alpha [TGFα]	179.01 µL/min/g	238.76 µL/min/g	36.03 µL/min/g	47.96 µL/min/g	410 pmol/min/mg tissue	347 pmol/min/mg tissue	64 pmol/min/mg tissue	156 mg	379 mg	522 mg	1442 mg	243 mg	–
B1	–	–	–	–	–	–	–	–	–	–	–	–	increase of sodium-dependent duodenal active transport of glucose [6]: approximately 60%; increase of transport of proline [6]: approximately 30%

— patent publication US5912227A, “Method of enhancing nutrient uptake” (North Carolina State University, priority 1995, dated 1999)
